Experimental data reported in patent publication US20260070945A1, “MACROCYCLIC IMMUNOMODULATORS” (Bristol-Myers Squibb Company, priority 2022, published 2026).
pIC50: −log10 of the molar value. *1 amine or outer side, *2 acyl side, *3 side chain or, on linkers, in order; H or OH if unused. Where a SMILES comes first, the peptide text is derived from it. Bridges are numbered along the chain shown (N, C = ends). [ ]: non-standard residue; d: D form. The star is where a group is joined. ξ: configuration not given here. X10 = O=C(O)COc1ccc(C[C@H](CC(=O)C[*:2])C(=O)[*:1])cc1; Phe(3-CF3) = N[C@@H](Cc1cccc(C(F)(F)F)c1)C(=O)O; Phe(4-COOH) = N[C@@H](Cc1ccc(C(=O)O)cc1)C(=O)O; d(γGlu) = O=C(O)[C@@H](CCC(=O)[*:2])N[*:1]; Bip = N[C@@H](Cc1ccc(-c2ccccc2)cc1)C(=O)O; NH(CH2)14COOH = O=C(O)CCCCCCCCCCCCCCN*; γGlu = O=C(O)[C@H](CCC(=O)[*:2])N[*:1]; NH(CH2)12COOH = O=C(O)CCCCCCCCCCCCN*; Val(3-OH) = CC(C)(O)[C@H](N)C(=O)O; 2Thi = N[C@@H](Cc1cccs1)C(=O)O; Cha = N[C@@H](CC1CCCCC1)C(=O)O; Ile(3ξ) = CCC(C)[C@H](N)C(=O)O; X9 = NC(=O)CCCCCCCCCCCCCCN*; Carboxymethyl = O=C(O)C*; NMeA = CN[C@@H](C)C(=O)O; Dab = NCC[C@H](N)C(=O)O; AEEA = NCCOCCOCC(=O)O

Each compound was assayed against T1, PD-1/PD-L1 interaction (PE-labeled human PD-L1-Ig binding to Jurkat cell line over-expressing human PD-1) (Homo sapiens, UniProt Q15116) (assay: Jurkat-PD-1 Cell Binding High-Content Screening Assay (CBA)). Conditions: PE-labeled PD-L1-Ig 20 nM final, Jurkat-hPD-1 cells; read-out: Jurkat HPD1 PDL1 IC50.
T1 construct: expressed in transfected cells; host or cells: Jurkat
How it was run: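 Jurkat cells overexpressing human PD-1 (8×10^3/well, DMEM + 10% FCS) preincubated with compound 2 h at 37 °C, then PE-labelled human PD-L1-Ig (20 nM final) for 1 h. Cells fixed in paraformaldehyde with Hoechst 33342; bound PD-L1 quantified by high-content imaging.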

T1 sequence (Q15116 25-288): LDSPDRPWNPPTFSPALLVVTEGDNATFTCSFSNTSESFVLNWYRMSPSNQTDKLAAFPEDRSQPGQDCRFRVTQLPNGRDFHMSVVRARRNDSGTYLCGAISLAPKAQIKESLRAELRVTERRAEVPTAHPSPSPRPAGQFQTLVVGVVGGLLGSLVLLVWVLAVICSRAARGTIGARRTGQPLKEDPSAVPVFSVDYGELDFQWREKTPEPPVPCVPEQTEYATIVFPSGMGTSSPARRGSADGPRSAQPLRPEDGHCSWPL

`CC(C)C[C@H]1NC(=O)[C@H](C)N(C)C(=O)[C@H](CCC(N)=O)NC(=O)[C@H](Cc2ccc(-c3ccccc3)cc2)NC(=O)[C@H](Cc2ccc(OCC(=O)O)cc2)NC(=O)[C@H](Cc2cccc(C(F)(F)F)c2)NC(=O)[C@H](CC(=O)O)NC(=O)[C@H](Cc2ccc(OCC(=O)O)cc2)NC(=O)[C@H](Cc2ccc(OCC(=O)O)cc2)NC(=O)CSC[C@@H](C(=O)N[C@@H](CCN)C(=O)NCCOCCOCC(=O)NCCOCCOCC(=O)N[C@H](CCC(=O)NCCCCCCCCCCCCCCC(=O)O)C(=O)O)NC(=O)[C@H](Cc2cnc[nH]2)NC(=O)[C@H](C(C)(C)O)NC(=O)[C@H](CC2CCCCC2)NC(=O)[C@H](CCN)NC1=O` [Example 2627] ({CH2CO}-Y(Carboxymethyl)Y(Carboxymethyl)D[Phe(3-CF3)]Y(Carboxymethyl)[Bip]Q[NMeA][dL][Dab][Cha][Val(3-OH)]HC[Dab][AEEA][AEEA][dE](NH(CH2)14COOH)-OH; thioether N-14) was tested. Which pIC50 did it give?
The pIC50 was 6.78.

How did the pIC50 turn out when `CC(C)C[C@H]1NC(=O)[C@H](C)N(C)C(=O)[C@H](CCC(N)=O)NC(=O)[C@H](Cc2ccc(-c3ccccc3)cc2)NC(=O)[C@H](Cc2ccc(OCC(=O)O)cc2)NC(=O)[C@H](Cc2cccc(C(F)(F)F)c2)NC(=O)[C@H](CC(=O)O)NC(=O)[C@H](Cc2ccc(OCC(=O)O)cc2)NC(=O)[C@H](C)NC(=O)CSC[C@@H](C(=O)N[C@@H](CCN)C(=O)NCCOCCOCC(=O)NCCOCCOCC(=O)N[C@H](CCC(=O)NCCCCCCCCCCCCCCC(=O)O)C(=O)O)NC(=O)[C@H](Cc2cnc[nH]2)NC(=O)[C@H](C(C)(C)O)NC(=O)[C@H](CC2CCCCC2)NC(=O)[C@H](CCN)NC1=O` [Example 2628] ({CH2CO}-AY(Carboxymethyl)D[Phe(3-CF3)]Y(Carboxymethyl)[Bip]Q[NMeA][dL][Dab][Cha][Val(3-OH)]HC[Dab][AEEA][AEEA][dE](NH(CH2)14COOH)-OH; thioether N-14) was run?
The pIC50 was 6.61.

How did the pIC50 turn out when `CC(C)C[C@H]1NC(=O)[C@H](C)N(C)C(=O)[C@H](CCC(N)=O)NC(=O)[C@H](Cc2ccc(-c3ccccc3)cc2)NC(=O)[C@H](Cc2ccc(OCC(=O)O)cc2)NC(=O)[C@H](Cc2cccc(C(F)(F)F)c2)NC(=O)[C@H](CC(=O)O)NC(=O)[C@H](Cc2ccc(OCC(=O)O)cc2)NC(=O)[C@H](C)NC(=O)CSC[C@@H](C(=O)N[C@@H](CCN)C(=O)NCCCCCCCCCCCCC(=O)O)NC(=O)[C@H](CCC(=O)O)NC(=O)[C@H](C(C)(C)O)NC(=O)[C@H](CC2CCCCC2)NC(=O)[C@H](CCN)NC1=O` [Example 2629] ({CH2CO}-AY(Carboxymethyl)D[Phe(3-CF3)]Y(Carboxymethyl)[Bip]Q[NMeA][dL][Dab][Cha][Val(3-OH)]EC[Dab]-{NH(CH2)12COOH}; thioether N-14) was run?
Its pIC50 is 7.51.

`CC(C)C[C@H]1NC(=O)[C@H](C)N(C)C(=O)[C@H](CCC(N)=O)NC(=O)[C@H](Cc2ccc(-c3ccccc3)cc2)NC(=O)[C@H](Cc2ccc(OCC(=O)O)cc2)NC(=O)[C@H](Cc2cccc(C(F)(F)F)c2)NC(=O)[C@H](CC(=O)O)NC(=O)[C@H](Cc2ccc(OCC(=O)O)cc2)NC(=O)[C@H](Cc2cnc[nH]2)NC(=O)CSC[C@@H](C(=O)N[C@@H](CCN)C(=O)NCCCCCCCCCCCCC(=O)O)NC(=O)[C@H](CCC(=O)O)NC(=O)[C@H](C(C)(C)O)NC(=O)[C@H](CC2CCCCC2)NC(=O)[C@H](CCN)NC1=O` [Example 2630] ({CH2CO}-HY(Carboxymethyl)D[Phe(3-CF3)]Y(Carboxymethyl)[Bip]Q[NMeA][dL][Dab][Cha][Val(3-OH)]EC[Dab]-{NH(CH2)12COOH}; thioether N-14) was tested. Which pIC50 did it give?
Its pIC50 is 8.02.

`CCC(C)[C@@H]1NC(=O)[C@H](Cc2ccc(-c3ccccc3)cc2)NC(=O)[C@H](C(C)C)NC(=O)[C@H](Cc2c[nH]c3ccccc23)NC(=O)[C@H](CC(=O)O)NC(=O)[C@H](Cc2ccc(C(=O)O)cc2)NC(=O)[C@H](Cc2cnc[nH]2)NC(=O)CSC[C@@H](C(=O)N[C@@H](CCN)C(=O)NCCOCCOCC(=O)NCCCCCCCCCCCCC(=O)O)NC(=O)[C@H](CCC(=O)O)NC(=O)[C@H](C(C)(C)O)NC(=O)[C@H](CC2CCCCC2)NC(=O)[C@H](CCN)NC(=O)[C@@H](CC(C)C)NC(=O)[C@H](C)N(C)C1=O` (stereo partly drawn) [Example 2631] ({CH2CO}-H[Phe(4-COOH)]DWV[Bip][Ile(3ξ)][NMeA][dL][Dab][Cha][Val(3-OH)]EC[Dab][AEEA]-{NH(CH2)12COOH}; thioether N-14) was tested. Which pIC50 did it give?
The pIC50 was 7.81.

How did the pIC50 turn out when `CCC(C)[C@@H]1NC(=O)[C@H](Cc2ccc(-c3ccccc3)cc2)NC(=O)[C@H](C(C)C)NC(=O)[C@H](Cc2c[nH]c3ccccc23)NC(=O)[C@H](CC(=O)O)NC(=O)[C@H](Cc2ccc(C(=O)O)cc2)NC(=O)[C@H](Cc2cnc[nH]2)NC(=O)CSC[C@@H](C(=O)N[C@@H](CCN)C(=O)N[C@@H](CCC(=O)NCCCCCCCCCCCCC(=O)O)C(=O)O)NC(=O)[C@H](CCC(=O)O)NC(=O)[C@H](C(C)(C)O)NC(=O)[C@H](CC2CCCCC2)NC(=O)[C@H](CCN)NC(=O)[C@@H](CC(C)C)NC(=O)[C@H](C)N(C)C1=O` (stereo partly drawn) [Example 2632] ({CH2CO}-H[Phe(4-COOH)]DWV[Bip][Ile(3ξ)][NMeA][dL][Dab][Cha][Val(3-OH)]EC[Dab]E(NH(CH2)12COOH)-OH; thioether N-14) was run?
The pIC50 was 7.60.

With `CCC(C)[C@@H]1NC(=O)[C@H](Cc2ccc(-c3ccccc3)cc2)NC(=O)[C@H](C(C)C)NC(=O)[C@H](Cc2c[nH]c3ccccc23)NC(=O)[C@H](CC(=O)O)NC(=O)[C@H](Cc2ccc(C(=O)O)cc2)NC(=O)[C@H](Cc2cnc[nH]2)NC(=O)CSC[C@@H](C(=O)N[C@@H](CCN)C(=O)NCCOCCOCC(=O)N[C@@H](CCC(=O)NCCCCCCCCCCCCCCC(=O)O)C(=O)O)NC(=O)[C@H](CCC(=O)O)NC(=O)[C@H](C(C)(C)O)NC(=O)[C@H](CC2CCCCC2)NC(=O)[C@H](CCN)NC(=O)[C@@H](CC(C)C)NC(=O)[C@H](C)N(C)C1=O` (stereo partly drawn) [Example 2633] ({CH2CO}-H[Phe(4-COOH)]DWV[Bip][Ile(3ξ)][NMeA][dL][Dab][Cha][Val(3-OH)]EC[Dab][AEEA]E(NH(CH2)14COOH)-OH; thioether N-14) as the compound, how does the pIC50 read?
The pIC50 was 6.68.

With `CCC(C)[C@@H]1NC(=O)[C@H](Cc2ccc(-c3ccccc3)cc2)NC(=O)[C@H](C(C)C)NC(=O)[C@H](Cc2c[nH]c3ccccc23)NC(=O)[C@H](CC(=O)O)NC(=O)[C@H](Cc2ccc(C(=O)O)cc2)NC(=O)[C@H](Cc2cnc[nH]2)NC(=O)CSC[C@@H](C(=O)N[C@@H](CCN)C(=O)NCCOCCOCC(=O)N[C@@H](CCC(=O)N[C@H](CCC(=O)NCCCCCCCCCCCCCCC(=O)O)C(=O)O)C(=O)O)NC(=O)[C@H](CCC(=O)O)NC(=O)[C@H](C(C)(C)O)NC(=O)[C@H](CC2CCCCC2)NC(=O)[C@H](CCN)NC(=O)[C@@H](CC(C)C)NC(=O)[C@H](C)N(C)C1=O` (stereo partly drawn) [Example 2634] ({CH2CO}-H[Phe(4-COOH)]DWV[Bip][Ile(3ξ)][NMeA][dL][Dab][Cha][Val(3-OH)]EC[Dab][AEEA][γGlu][d(γGlu)]-{NH(CH2)14COOH}; thioether N-14) as the compound, how does the pIC50 read?
Its pIC50 is 6.73.

How did the pIC50 turn out when `CCC(C)[C@@H]1NC(=O)[C@H](Cc2ccc(-c3ccccc3)cc2)NC(=O)[C@H](C(C)C)NC(=O)[C@H](Cc2c[nH]c3ccccc23)NC(=O)[C@H](CC(=O)O)NC(=O)[C@H](Cc2ccc(C(=O)O)cc2)NC(=O)[C@H](Cc2cnc[nH]2)NC(=O)CSC[C@@H](C(=O)N[C@@H](CCN)C(=O)NCCOCCOCC(=O)N[C@@H](CCC(=O)NCCOCCOCC(=O)NCCCCCCCCCCCCCCC(=O)O)C(=O)O)NC(=O)[C@H](CCC(=O)O)NC(=O)[C@H](C(C)(C)O)NC(=O)[C@H](CC2CCCCC2)NC(=O)[C@H](CCN)NC(=O)[C@@H](CC(C)C)NC(=O)[C@H](C)N(C)C1=O` (stereo partly drawn) [Example 2635] ({CH2CO}-H[Phe(4-COOH)]DWV[Bip][Ile(3ξ)][NMeA][dL][Dab][Cha][Val(3-OH)]EC[Dab][AEEA][γGlu][AEEA]-{NH(CH2)14COOH}; thioether N-14) was run?
Its pIC50 is 6.98.

How did the pIC50 turn out when `CC(C)C[C@H]1NC(=O)[C@H](C)N(C)C(=O)[C@H](Cc2ccc(C(=O)O)cc2)NC(=O)[C@H](Cc2ccc(-c3ccccc3)cc2)NC(=O)[C@H](Cc2ccc(OCC(=O)O)cc2)NC(=O)[C@H](Cc2cccc(C(F)(F)F)c2)NC(=O)[C@H](CC(=O)O)NC(=O)[C@H](Cc2ccc(OCC(=O)O)cc2)NC(=O)[C@H](Cc2cccs2)NC(=O)CSC[C@@H](C(=O)N[C@@H](CCN)C(=O)NCCCCCCCCCCCCC(=O)O)NC(=O)[C@H](Cc2cnc[nH]2)NC(=O)[C@H](C(C)(C)O)NC(=O)[C@H](CC2CCCCC2)NC(=O)[C@H](CCN)NC1=O` [Example 2636] ({CH2CO}-[2Thi]Y(Carboxymethyl)D[Phe(3-CF3)]Y(Carboxymethyl)[Bip][Phe(4-COOH)][NMeA][dL][Dab][Cha][Val(3-OH)]HC[Dab]-{NH(CH2)12COOH}; thioether N-14) was run?
The pIC50 was 6.87.

With `CC(=O)NCCCC[C@@H]1NC(=O)[C@H](C(C)(C)O)NC(=O)[C@H](CC2CCCCC2)NC(=O)[C@H](CCN)NC(=O)[C@@H](CC(C)C)NC(=O)[C@H](C)N(C)C(=O)[C@H](CCC(N)=O)NC(=O)[C@H](Cc2ccc(-c3ccccc3)cc2)NC(=O)[C@H](Cc2ccc(C(=O)O)cc2)NC(=O)[C@H](Cc2cccc(C(F)(F)F)c2)NC(=O)[C@H](CC(=O)O)NC(=O)[C@H](Cc2ccc(OCC(=O)O)cc2)NC(=O)[C@H](Cc2ccc(OCC(=O)O)cc2)CC(=O)CSC[C@@H](C(=O)N[C@@H](CCN)C(=O)NCCOCCOCC(=O)N[C@@H](CC(=O)NCCCCCCCCCCCCCCC(N)=O)C(=O)O)NC1=O` [Example 2637] (Y(Carboxymethyl)D[Phe(3-CF3)][Phe(4-COOH)][Bip]Q[NMeA][dL][Dab][Cha][Val(3-OH)]K(Ac)C[Dab][AEEA]D(X9)-OH; linker N-13 via X10) as the compound, how does the pIC50 read?
Its pIC50 is 7.62.
